Laboratory results as given in patent publication US20240424043A1, “COMPOSITION FOR PREVENTING OR TREATING MUSCLE DISEASE COMPRISING ARALIA ELATA EXTRACT” (KOREA INSTITUTE OF SCIENCE AND TECHNOLOGY, priority 2023, published 2024).

What was measured:
C2C12 myotubes [1] = assay: Oxidative stress (GSH content) and mitochondrial function in dexamethasone-treated myotubes; type: cell-based, mouse; details: 20 μM compound, 100 μM dexamethasone for 24 hours, FIG. 8; for glutathione (GSH) content: decreased by dexamethasone
Experimental: (§1) Cell culture and differentiation of myoblasts: C2C12 mouse (CRL1772; American type cell collection, USA) derived myoblasts were cultured in Dulbecco's Modified Eagle's Medium (DMEM) medium supplemented with 10 (v/v) % FBS, and after reaching 90% confluence, they were transferred to DMEM medium containing 2 (v/v) % horse serum and cultured for 7 days to differentiate into myotubes.
As in Example 4, C2C12 myoblasts were differentiated into myotubes, and then treated with 100 μM of dexamethasone for 24 hours to induce oxidative stress or mitochondrial dysfunction, and then treated with 20 μM of three compounds (catechol, 4-ethyl catechol, and methyl dihydroxycaffeate) isolated from the extract of Aralia Elata to determine their efficacy in ameliorating oxidative stress and mitochondrial dysfunction. […] Furthermore, the mitochondrial dysfunction induced by dexamethasone treatment was ameliorated by treatment with the present compound derived from the extract of Aralia Elata (FIG. 8).

[2] = test system: Ppargc1a, UCp3, Tomm20, and Tfam gene expression in C2C12 mouse-derived endodermal cells; assay: RT-qPCR of exercise performance-related gene expression; type: cell-based; details: dexamethasone 10 μM, beta-actin control, reduced by dexamethasone, FIG. 9
Experimental: (§2) C2C12 mouse-derived endodermal cells treated with dexamethasone 10 μM were washed twice with PBS, and total RNA was extracted according to the user-recommended protocol of an RNA extraction kit (GeneAll RNA isolation kit, Seoul, South Korea). cDNA was synthesized from the extracted RNA, and subjected to real time-quantitative polymerase chain reaction (RT-qPCR). PCR analysis was performed according to the user-recommended cycling conditions of the analyzer (Applied Biosystems 7900 HT thermal cycler, Applied Biosystems). To determine the expression level of each mRNA, fold change values relative to the control were calculated using beta-actin as an endogenous control, and relative expression levels were compared.

[3] = test system: Ppargc1a, UCp3, Tomm20, and Tfam gene expression in C2C12 mouse-derived cells; assay: as above; type: cell-based; details: dexamethasone 10 μM, beta-actin control, reduced by dexamethasone, FIG. 9
Experimental: as §2

C2C12 myotubes [4] = assay: Myotube cell survival rate after dexamethasone-induced myoatrophy; type: cell-based, mouse; details: 20 μM compound; 100 μM dexamethasone for 24 hours; FIG. 5
Experimental: as §1
C2C12 myoblasts were differentiated into myotubes, and then treated with 100 μM of dexamethasone for 24 hours to induce myoatrophy, and 20 μM of 13 compounds isolated from the extract (see Table 1) to determine the effect of alleviating myoatrophy.

[5] = test system: Mstn, Myd1, Myog, and Myf5 gene expression in C2C12 mouse-derived myotubes; assay: RT-qPCR of muscle cell differentiation-related gene expression; type: cell-based; details: dexamethasone 10 μM, beta-actin control, FIG. 7; for Mstn gene expression (marker of muscle growth inhibition): increased by dexamethasone; for Myd1 gene expression (marker of myogenic differentiation) / Myf5 gene expression (marker of myogenic differentiation) / Myog gene expression (marker of myogenic differentiation): reduced by dexamethasone
Experimental: as §2, with “mouse-derived myotubes” for “mouse-derived endodermal cells”, “extracted RNA” for “extracted RNA,”, “(RT-qPCR). POR” for “(RT-qPCR). PCR”

[6] = test system: mice in which sarcopenia was induced by administration of Dexamethasone; assay: Grip strength and body weight in dexamethasone-induced sarcopenia mouse model; type: in vivo, C57BL/6J mice; details: compared to the group treated only with Dexamethasone (25 mg/kg i.p., 2 weeks); oral once daily 4 weeks; AE 10, 50 or 100 mg/kg, S-23 25 mg/kg; FIG. 2
Experimental: The present inventors created a sarcopenia mouse model to confirm the effectiveness of Aralia Elata extract prepared in the above-described preparation example to treat or improve sarcopenia, and measured grip strength using the control mouse and the sarcopenia mouse model.
The mice used to confirm the efficacy of Aralia Elata extract were prepared through the following process.
The test substance was prepared in the form of a liquid suspension using 0.5% CMC and administered for 4 weeks. To correct for the placebo effect of 0.5% CMC and the weight loss effect due to administration stress, 0.5% CMC was orally administered daily to the vehicle control group. Two weeks after administration of the test substance, the experimental group was administered intraperitoneal injection of Dexamethasone for two weeks to induce sarcopenia, and the normal control group was administered saline solution by intraperitoneal injection. All mice were provided with the same AlN76 diet (Research Diets), and the test substances were administered for an additional 2 weeks for a total of 4 weeks. The dark: light cycle was maintained at 12-hour:12-hour intervals, and water was allowed to be consumed freely. […] (Dex: Dexamethasone sarcopenia-inducing substance (25 mg/kg), AE: Aralia Elata extract (10, 50, or 100 mg/kg)).

Row | Structure (SMILES) | mitochondrial dysfunction induced by dexamethasone treatment (C2C12 myotubes [1]) | glutathione (GSH) content (C2C12 myotubes [1]) | Tfam gene expression [2] | Tomm20 gene expression [2] | UCp3 gene expression [2] | Ppargc1a gene expression [3] | viability of myotubes reduced by dexamethasone treatment (C2C12 myotubes [4]) | Mstn gene expression (marker of muscle growth inhibition) [5] | Myd1 gene expression (marker of myogenic differentiation) [5] | Myf5 gene expression (marker of myogenic differentiation) [5] | Myog gene expression (marker of myogenic differentiation) [5] | body weight [6] | grip strength [6]
1 | Oc1ccccc1O [Compound 3, Catechol] | ameliorated | increased again | increased | increased | increased | increased | significantly superior effect | decreased | increased | increased | increased |  | 
2 | C[C@](O)(COc1ccc(Cl)c(F)c1)C(=O)Nc1ccc(C#N)c(C(F)(F)F)c1 [Compound S-23] |  |  |  |  |  |  |  |  |  |  |  | increased | increased
3 | CCc1ccc(O)c(O)c1 [Compound 4, 4-ethyl catechol] |  |  |  |  |  |  | significantly superior effect |  |  |  |  |  | 
4 | CCc1ccc(O)c(O)c1 [4-ethyl catechol] | ameliorated | increased again | increased | increased | increased | increased |  | decreased | increased | increased | increased |  | 
